From the NIST ThermoML archive (doi:10.1021/je060271a)

Details: Liquid, Vibrating tube method

CCCCCCCC(=O)OCC(COC(=O)CCCCCCC)(COC(=O)CCCCCCC)COC(=O)CCCCCCC [pentaerythritol tetraoctanoate]
Details | mass density [kg/m3]
283.15 K, 29618 kPa | 986.1
283.15 K, 29659 kPa | 986
283.15 K, 29698 kPa | 986.2
283.15 K, 29736 kPa | 986.1
283.15 K, 29782 kPa | 986.2
283.15 K, 29821 kPa | 986.2
283.15 K, 29859 kPa | 986.3
283.15 K, 29906 kPa | 986.3
283.15 K, 29946 kPa | 986.3
283.15 K, 29992 kPa | 986.4
283.15 K, 30032 kPa | 986.4
283.15 K, 30071 kPa | 986.3
283.15 K, 30118 kPa | 986.4
283.15 K, 30158 kPa | 986.4
283.15 K, 30201 kPa | 986.4
283.15 K, 30242 kPa | 986.5
283.15 K, 30289 kPa | 986.4
283.15 K, 30330 kPa | 986.5
283.15 K, 30370 kPa | 986.4
283.15 K, 30418 kPa | 986.5
283.15 K, 30459 kPa | 986.5
283.15 K, 30500 kPa | 986.6
283.15 K, 30549 kPa | 986.6
283.15 K, 30590 kPa | 986.6
283.15 K, 30631 kPa | 986.6
283.15 K, 30673 kPa | 986.6
283.15 K, 30724 kPa | 986.6
283.15 K, 30766 kPa | 986.7
283.15 K, 30808 kPa | 986.8
283.15 K, 30850 kPa | 986.6
283.15 K, 30900 kPa | 986.7
283.15 K, 30942 kPa | 986.8
283.15 K, 30985 kPa | 986.9
283.15 K, 31036 kPa | 986.8
283.15 K, 31079 kPa | 986.8
283.15 K, 31123 kPa | 986.8
283.15 K, 31174 kPa | 986.8
283.15 K, 31217 kPa | 986.9
283.15 K, 31260 kPa | 986.9
283.15 K, 31312 kPa | 987
283.15 K, 31356 kPa | 987.1
283.15 K, 31399 kPa | 987
283.15 K, 31451 kPa | 987.1
283.15 K, 31495 kPa | 987.1
283.15 K, 31539 kPa | 987
283.15 K, 31584 kPa | 987
283.15 K, 31637 kPa | 987.1
283.15 K, 31682 kPa | 987.2
283.15 K, 31727 kPa | 987.1
283.15 K, 31781 kPa | 987.2
283.15 K, 31826 kPa | 987.2
283.15 K, 31872 kPa | 987.1
283.15 K, 31928 kPa | 987.2
283.15 K, 31976 kPa | 987.3
283.15 K, 32024 kPa | 987.3
283.15 K, 32078 kPa | 987.3
283.15 K, 32117 kPa | 987.3
283.15 K, 32155 kPa | 987.4
283.15 K, 32186 kPa | 987.4
283.15 K, 32232 kPa | 987.5
283.15 K, 32279 kPa | 987.3
283.15 K, 32317 kPa | 987.5
283.15 K, 32364 kPa | 987.6
283.15 K, 32402 kPa | 987.5
283.15 K, 32442 kPa | 987.6
283.15 K, 32488 kPa | 987.5
283.15 K, 32528 kPa | 987.5
283.15 K, 32567 kPa | 987.6
283.15 K, 32614 kPa | 987.6
283.15 K, 32653 kPa | 987.6
283.15 K, 32700 kPa | 987.7
283.15 K, 32740 kPa | 987.6
283.15 K, 32779 kPa | 987.7
283.15 K, 32819 kPa | 987.7
283.15 K, 32868 kPa | 987.8
283.15 K, 32908 kPa | 987.7
283.15 K, 32947 kPa | 987.7
283.15 K, 32996 kPa | 987.9
283.15 K, 33037 kPa | 987.8
283.15 K, 33127 kPa | 987.8
283.15 K, 33168 kPa | 987.9
283.15 K, 33209 kPa | 987.9
283.15 K, 33260 kPa | 987.8
283.15 K, 33301 kPa | 987.9
283.15 K, 33344 kPa | 988
283.15 K, 33396 kPa | 988
283.15 K, 33439 kPa | 988
283.15 K, 33492 kPa | 988.1
283.15 K, 33538 kPa | 988
283.15 K, 33585 kPa | 988.1
283.15 K, 33636 kPa | 988.2
283.15 K, 33684 kPa | 988.1
283.15 K, 33728 kPa | 988.1
283.15 K, 33754 kPa | 988.1
283.15 K, 33776 kPa | 988.2
283.15 K, 33797 kPa | 988.2
283.15 K, 33823 kPa | 988.2
283.15 K, 33845 kPa | 988.1
283.15 K, 33867 kPa | 988.2
283.15 K, 33889 kPa | 988.2
283.15 K, 33915 kPa | 988.4
283.15 K, 33937 kPa | 988.3
283.15 K, 33959 kPa | 988.3
283.15 K, 33986 kPa | 988.2
283.15 K, 34008 kPa | 988.3
283.15 K, 34126 kPa | 988.4
283.15 K, 34154 kPa | 988.4
283.15 K, 34177 kPa | 988.3
283.15 K, 34205 kPa | 988.4
283.15 K, 34229 kPa | 988.5
283.15 K, 34255 kPa | 988.4
283.15 K, 34282 kPa | 988.4
283.15 K, 34314 kPa | 988.4
283.15 K, 34342 kPa | 988.4
283.15 K, 34371 kPa | 988.6
283.15 K, 34402 kPa | 988.5
283.15 K, 34407 kPa | 988.5
283.15 K, 34408 kPa | 988.5
283.15 K, 34409 kPa | 988.5
283.15 K, 34410 kPa | 988.5
283.16 K, 5633.2 kPa | 973.4
283.16 K, 22751 kPa | 982.8
283.16 K, 22773 kPa | 982.7
283.16 K, 22795 kPa | 982.6
283.16 K, 33086 kPa | 987.8
283.16 K, 33707 kPa | 988.2
283.16 K, 34030 kPa | 988.3
283.16 K, 34053 kPa | 988.3
283.16 K, 34080 kPa | 988.4
283.16 K, 34103 kPa | 988.3
303.14 K, 3768.3 kPa | 957.8
303.14 K, 3783 kPa | 957.7
303.14 K, 3800.7 kPa | 957.8
303.14 K, 3818.7 kPa | 957.7
303.14 K, 3833.9 kPa | 957.8
303.14 K, 3852.1 kPa | 957.7
303.14 K, 3867.4 kPa | 957.7
303.14 K, 3885.9 kPa | 957.9
303.14 K, 3920.2 kPa | 957.8
303.14 K, 3936.3 kPa | 957.8
303.14 K, 3956 kPa | 957.8
303.14 K, 3973 kPa | 957.8
303.14 K, 3988.9 kPa | 958
303.14 K, 4008.8 kPa | 957.9
303.14 K, 4024.9 kPa | 957.8
303.14 K, 4044.7 kPa | 957.9
303.14 K, 4060.9 kPa | 958
303.14 K, 4081.2 kPa | 957.9
